According to patent publication US7396837B2, “Antitumoral analogs of lamellarins” (Pharma Mar, S.A.U., priority 2002, dated 2008):

Columns and labels:
HT-29 = assay: SRB colorimetric cell growth inhibition assay, HT-29; format: cell-based; conditions: Homo sapiens, HT-29, HT-29
In short: (§1)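 Quantitation uses the sulforhodamine B reaction on cells exposed to sample for the whole assay period; results (mean ± SD, n = 3 wells) yield GI, TGI and LC.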

PANC-1 = assay: SRB colorimetric cell growth inhibition assay, PANC-1; format: cell-based; conditions: Homo sapiens, PANC-1, PANC-1
In short: as §1

LNCaP = assay: SRB colorimetric cell growth inhibition assay, LNCaP; format: cell-based; conditions: Homo sapiens, LNCaP, LN-caP
In short: as §1

SK-MEL-28 = assay: SRB colorimetric cell growth inhibition assay, SK-MEL-28; format: cell-based; conditions: Homo sapiens, SK-MEL-28, MEL-28
In short: as §1

human topoisomerase I = biological target: T1, human topoisomerase I (Homo sapiens, UniProt P11387); assay: Topoisomerase I DNA relaxation assay (supercoiled plasmid DNA); format: biochemical
T1 sequence (P11387 1-765): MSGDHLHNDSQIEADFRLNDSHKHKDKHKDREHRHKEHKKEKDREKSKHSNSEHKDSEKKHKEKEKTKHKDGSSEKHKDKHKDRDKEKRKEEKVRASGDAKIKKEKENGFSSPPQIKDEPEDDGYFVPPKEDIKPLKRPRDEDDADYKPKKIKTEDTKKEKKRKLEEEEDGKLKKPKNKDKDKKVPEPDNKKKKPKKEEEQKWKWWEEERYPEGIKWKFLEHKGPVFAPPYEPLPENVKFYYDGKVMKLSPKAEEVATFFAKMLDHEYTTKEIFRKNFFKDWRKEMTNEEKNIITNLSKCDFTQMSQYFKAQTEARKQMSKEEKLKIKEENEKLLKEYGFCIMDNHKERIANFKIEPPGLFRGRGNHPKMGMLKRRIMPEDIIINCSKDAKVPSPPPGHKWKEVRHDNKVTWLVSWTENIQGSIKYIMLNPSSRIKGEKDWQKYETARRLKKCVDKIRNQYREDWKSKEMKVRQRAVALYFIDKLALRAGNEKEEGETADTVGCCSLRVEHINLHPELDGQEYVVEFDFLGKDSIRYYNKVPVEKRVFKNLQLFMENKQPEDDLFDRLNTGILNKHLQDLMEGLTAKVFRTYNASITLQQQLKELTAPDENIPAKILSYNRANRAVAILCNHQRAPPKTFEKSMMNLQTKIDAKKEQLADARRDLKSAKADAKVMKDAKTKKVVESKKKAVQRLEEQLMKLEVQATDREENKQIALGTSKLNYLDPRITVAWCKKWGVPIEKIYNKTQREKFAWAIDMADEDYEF
In short: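 Test compounds (1 μM each) were present during topoisomerase I relaxation of supercoiled plasmid DNA. Relaxation was assessed on ethidium bromide-stained agarose gels.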

SK-BR-3 = assay: SRB colorimetric cell growth inhibition assay, SK-BR-3; format: cell-based; conditions: Homo sapiens, SK-BR-3, SK-BR-3
In short: as §1

LoVo = assay: SRB colorimetric cell growth inhibition assay, LoVo; format: cell-based; conditions: Homo sapiens, LoVo
In short: as §1

IGROV-ET = assay: SRB colorimetric cell growth inhibition assay, IGROV-ET (ET-743 resistant); format: cell-based; conditions: Homo sapiens, IGROV-ET
In short: as §1

DU-145 = assay: SRB colorimetric cell growth inhibition assay, DU-145; format: cell-based; conditions: Homo sapiens, DU-145, DU-145
In short: as §1

IGROV = assay: SRB colorimetric cell growth inhibition assay, IGROV; format: cell-based; conditions: Homo sapiens, IGROV
In short: as §1

LoVo-Dox = assay: SRB colorimetric cell growth inhibition assay, LoVo-Dox (MDR); format: cell-based; conditions: Homo sapiens, LOVO-DOX
In short: as §1

K-562 = assay: SRB colorimetric cell growth inhibition assay, K-562; format: cell-based; conditions: Homo sapiens, K562, K-562
In short: as §1

A-549 = assay: SRB colorimetric cell growth inhibition assay, A-549; format: cell-based; conditions: Homo sapiens, A549, A-549
In short: as §1

Compound: COc1cc(-c2c3c4cc(OC)c(OC(=O)CCCCCN)cc4oc(=O)c3n3ccc4cc(OC(=O)CCCCCN)c(OC)cc4c23)ccc1OC(=O)CCCCCN [Compound 169]
- GI50 (HT-29; GI=growth inhibition, read-out: GI50 HT-29): 2970 nM
- CC50 (HT-29; cell killing (cytotoxic effect), read-out: LC50 HT-29): 10.5 µM
- IC (TGI) (HT-29; total growth inhibition (cytostatic effect), read-out: TGI HT-29): 10.5 µM
- GI50 (PANC-1; GI=growth inhibition, read-out: GI50 PANC-1): 152 nM
- CC50 (PANC-1; cell killing (cytotoxic effect), read-out: LC50 PANC-1): 10.5 µM
- IC (TGI) (PANC-1; total growth inhibition (cytostatic effect), read-out: TGI PANC-1): 10.5 µM
- GI50 (LNCaP; GI=growth inhibition, read-out: GI50 LN-caP): 37.3 nM
- CC50 (LNCaP; cell killing (cytotoxic effect), read-out: LC50 LN-caP): 1240 nM
- IC (TGI) (LNCaP; total growth inhibition (cytostatic effect), read-out: TGI LN-caP): 0.183 µM
- GI50 (SK-MEL-28; GI=growth inhibition, read-out: GI50 MEL-28): 46.4 nM
- CC50 (SK-MEL-28; cell killing (cytotoxic effect), read-out: LC50 MEL-28): 10.5 µM
- IC (TGI) (SK-MEL-28; total growth inhibition (cytostatic effect), read-out: TGI MEL-28): 0.529 µM
- stimulation of DNA cleavage by topoisomerase I, concentration-dependent measurements compared with LAM-D (3) (human topoisomerase I; dose-response analysis): equally efficient to (3)
- stimulation of DNA cleavage by topoisomerase I / inhibition of topoisomerase I (nicked DNA band) in DNA relaxation assay (human topoisomerase I; supercoiled plasmid DNA, each compound tested at 1 μM, agarose gel with ethidium bromide): inhibit topoisomerase I
- GI50 (SK-BR-3; GI=growth inhibition, read-out: GI50 SK-BR-3): 38.7 nM
- CC50 (SK-BR-3; cell killing (cytotoxic effect), read-out: LC50 SK-BR-3): 10.5 µM
- IC (TGI) (SK-BR-3; total growth inhibition (cytostatic effect), read-out: TGI SK-BR-3): 0.132 µM
- GI50 (LoVo; GI=growth inhibition, read-out: GI50 LOVO): 159 nM
- CC50 (LoVo; cell killing (cytotoxic effect), read-out: LC50 LOVO): 1420 nM
- IC (TGI) (LoVo; total growth inhibition (cytostatic effect), read-out: TGI LOVO): 0.418 µM
- GI50 (IGROV-ET; GI=growth inhibition, read-out: GI50 IGROV-ET): 41.8 nM
- CC50 (IGROV-ET; cell killing (cytotoxic effect), read-out: LC50 IGROV-ET): 10.5 µM
- IC (TGI) (IGROV-ET; total growth inhibition (cytostatic effect), read-out: TGI IGROV-ET): 0.301 µM
- GI50 (DU-145; GI=growth inhibition, read-out: GI50 DU-145): 15.1 nM
- CC50 (DU-145; cell killing (cytotoxic effect), read-out: LC50 DU-145): 10.5 nM
- IC (TGI) (DU-145; total growth inhibition (cytostatic effect), read-out: TGI DU-145): 0.0901 µM
- GI50 (IGROV; GI=growth inhibition, read-out: GI50 IGROV): 47.1 nM
- CC50 (IGROV; cell killing (cytotoxic effect), read-out: LC50 IGROV): 10.5 µM
- IC (TGI) (IGROV; total growth inhibition (cytostatic effect), read-out: TGI IGROV): 1.92 µM
- GI50 (LoVo-Dox; GI=growth inhibition, read-out: GI50 LOVO-DOX): 258 nM
- CC50 (LoVo-Dox; cell killing (cytotoxic effect), read-out: LC50 LOVO-DOX): 1.05 mM
- IC (TGI) (LoVo-Dox; total growth inhibition (cytostatic effect), read-out: TGI LOVO-DOX): 0.922 µM
- GI50 (K-562; GI=growth inhibition, read-out: GI50 K-562): 68 nM
- CC50 (K-562; cell killing (cytotoxic effect), read-out: LC50 K-562): 10.5 µM
- IC (TGI) (K-562; total growth inhibition (cytostatic effect), read-out: TGI K-562): 3.21 µM
- GI50 (A-549; GI=growth inhibition, read-out: GI50 A-549): 64.6 nM
- CC50 (A-549; cell killing (cytotoxic effect), read-out: LC50 A-549): 9.74 µM
- IC (TGI) (A-549; total growth inhibition (cytostatic effect), read-out: TGI A-549): 1.14 µM
